From patent US8129398B2 (priority 2008, dated 2012) come the findings set out here.

The structures appear in SMILES notation.

For the assay, the target named is T1, HIV-integrase (Human immunodeficiency virus type 1 group M subtype B, UniProt P12497).
T1 construct: Recombinant integrase (0.26 ng) was incubated with the beads
Briefly: HIV-Integrase Inhibition Activity (SPA bead integration assay with P33 labeled target DNA). The assay is classed as biochemical. Particulars: recombinant integrase, class symbols; read-out: in vitro activity. The procedure, abridged: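 Biotinylated substrate DNA on streptavidin SPA beads loaded with recombinant integrase (90 min, 37° C), washed, then inhibitor plus 0.1 fmol P33-labeled target DNA added. Reaction stopped with 10 mM EDTA; integration measured as CPM by scintillation, giving IC50 ranks.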
For `NC12CCC(Cn3c1nc(C(=O)NCc1ccc(F)cc1)c(O)c3=O)OC2` (centres unmarked) [Example 220, 10-Amino-N-(4-fluorobenzyl)-3-hydroxy-4-oxo-4,6,7,8,9,10-hexahydro-7,10-(epoxymethano)pyrimido[1,2-a]azepine-2-carboxamide], the IC50 lay within 10 to 100 nM. In the case of `CC(=O)NC12CCC(Cn3c1nc(C(=O)NCc1ccc(F)cc1)c(O)c3=O)OC2` (centres unmarked) [Example 221, 10-(Acetylamino)-N-(4-fluorobenzyl)-3-hydroxy-4-oxo-4,6,7,8,9,10-hexahydro-7,10-(epoxymethano)pyrimido[1,2-a]azepine-2-carboxamide], the IC50 is below 10 nM. With `CN(C)C(=O)C(=O)NC12CCC(Cn3c1nc(C(=O)NCc1ccc(F)cc1)c(O)c3=O)OC2` (centres unmarked) [Example 222, N′-(2-((4-Fluorobenzyl)carbamoyl)-3-hydroxy-4-oxo-6,7,8,9-tetrahydro-7,10-(epoxymethano)pyrimido[1,2-a]azepin-10(4H)-yl)-N,N-dimethylethanediamide], the IC50 was below 10 nM. The figure for `COCCOC12CCC(CC1)Cn1c2nc(C(=O)NCc2ccc(F)cc2)c(O)c1=O` [Example 225, 7,10-Ethanopyrimido[1,2-a]azepine-2-carboxamide, N-[(4-fluorophenyl)methyl]-4,6,7,8,9,10-hexahydro-3-hydroxy-10-(2-methoxyethoxy)-4-oxo-] is below 10 nM; for `CN(C)C(=O)COC12CCC(CC1)Cn1c2nc(C(=O)NCc2ccc(F)cc2)c(O)c1=O` [Example 226, 7,10-Ethanopyrimido[1,2-a]azepine-2-carboxamide, 10-[2-(dimethylamino)-2-oxoethoxy]-N-[(4-fluorophenyl)methyl]-4,6,7,8,9,10-hexahydro-3-hydroxy-4-oxo-] it is 10 to 100 nM. On to `Cc1ccc(CNC(=O)c2nc3n(c(=O)c2O)CC2CCC3(NC(=O)C(=O)N(C)C)CC2)o1` [Example 234], for which the IC50 is below 10 nM.

As for `CN(C)C(=O)C(=O)NC12CCC(CC1)Cn1c2nc(C(=O)NCc2c[nH]c3ccccc23)c(O)c1=O` [Example 235, Ethanediamide, N,N-dimethyl-N′-[6,7,8,9-tetrahydro-3-hydroxy-2-[[(1H-indol-3-ylmethyl)amino]carbonyl]-4-oxo-7,10-ethanopyrimido[1,2-a]azepin-10(4H)-yl]-], the IC50 is below 10 nM. The figure for `Cc1cc(CNC(=O)c2nc3n(c(=O)c2O)CC2CCC3(NC(=O)C(=O)N(C)C)CC2)nn1C(C)(C)C` [Example 236, Ethanediamide, N′-[2-[[[[1-(1,1-dimethylethyl)-5-methyl-1H-pyrazol-3-yl]methyl]amino]carbonyl]-6,7,8,9-tetrahydro-3-hydroxy-4-oxo-7,10-ethanopyrimido[1,2-a]azepin-10(4H)-yl]-N,N-dimethyl-] is 10 to 100 nM. Next, `Cc1ccc(C(=O)NC23CCC(CC2)Cn2c3nc(C(=O)NCc3ccc(F)cc3)c(O)c2=O)o1` [Example 237, 7,10-Ethanopyrimido[1,2-a]azepine-2-carboxamide, N-[(4-fluorophenyl)methyl]-4,6,7,8,9,10-hexahydro-3-hydroxy-10-[[(5-methyl-2-furanyl)carbonyl]amino]-4-oxo-]: below 10 nM.

Consider `O=C(NCc1ccc(F)cc1)c1nc2n(c(=O)c1O)CC1CCC2(NC(=O)C2CCOC2)CC1` (centres unmarked) [Example 238, 7,10-Ethanopyrimido[1,2-a]azepine-2-carboxamide, N-[(4-fluorophenyl)methyl]-4,6,7,8,9,10-hexahydro-3-hydroxy-4-oxo-10-[[(tetrahydro-3-furanyl)carbonyl]amino]-], for which the IC50 is below 10 nM. The figure for `O=C(NC12CCC(CC1)Cn1c2nc(C(=O)NCc2ccc(F)cc2)c(O)c1=O)c1ccc2nccn2c1` [Example 239, 7,10-Ethanopyrimido[1,2-a]azepine-2-carboxamide, N-[(4-fluorophenyl)methyl]-4,6,7,8,9,10-hexahydro-3-hydroxy-10-[(imidazo[1,2-a]pyridin-6-ylcarbonyl)amino]-4-oxo-] is below 10 nM. For the compound `Cc1cc(C(=O)NC23CCC(CC2)Cn2c3nc(C(=O)NCc3ccc(F)cc3)c(O)c2=O)nn1C(C)(C)C` [Example 240], the IC50 was below 10 nM. Next, `Cc1cc(C(=O)NC23CCC(CC2)Cn2c3nc(C(=O)NCc3ccc(F)cc3)c(O)c2=O)n(C)n1` [Example 241, 7,10-Ethanopyrimido[1,2-a]azepine-2-carboxamide, 10-[[(1,3-dimethyl-1H-pyrazol-5-yl)carbonyl]amino]-N-[(4-fluorophenyl)methyl]-4,6,7,8,9,10-hexahydro-3-hydroxy-4-oxo-]: below 10 nM; `Cc1c(C(=O)NC23CCC(CC2)Cn2c3nc(C(=O)NCc3ccc(F)cc3)c(O)c2=O)ncn1C` [Example 242, 7,10-Ethanopyrimido[1,2-a]azepine-2-carboxamide, 10-[[(1,5-dimethyl-1H-imidazol-4-yl)carbonyl]amino]-N-[(4-fluorophenyl)methyl]-4,6,7,8,9,10-hexahydro-3-hydroxy-4-oxo-]: below 10 nM; `Cc1ncn(C)c1C(=O)NC12CCC(CC1)Cn1c2nc(C(=O)NCc2ccc(F)cc2)c(O)c1=O` [Example 243, 7,10-Ethanopyrimido[1,2-a]azepine-2-carboxamide, 10-[[(1,4-dimethyl-1H-imidazol-5-yl)carbonyl]amino]-N-[(4-fluorophenyl)methyl]-4,6,7,8,9,10-hexahydro-3-hydroxy-4-oxo-]: 10 to 100 nM. Regarding `CN(C)C(=O)C(=O)NC12CCC(CC1)Cn1c2nc(C(=O)NCc2ccc3nccn3c2)c(O)c1=O` [Example 244, Ethanediamide, N,N-dimethyl-N′-[6,7,8,9-tetrahydro-3-hydroxy-2-[[(imidazo[1,2-a]pyridin-6-ylmethyl)amino]carbonyl]-4-oxo-7,10-ethanopyrimido[1,2-a]azepin-10(4H)-yl]-], the IC50 lay in the range of 10 to 100 nM.

Take `Cn1ccc(C(=O)NC23CCC(CC2)Cn2c3nc(C(=O)NCc3ccc(F)cc3)c(O)c2=O)n1` [Example 245, 7,10-Ethanopyrimido[1,2-a]azepine-2-carboxamide, N-[(4-fluorophenyl)methyl]-4,6,7,8,9,10-hexahydro-3-hydroxy-10-[[(1-methyl-1H-pyrazol-3-yl)carbonyl]amino]-4-oxo-]: the IC50 is below 10 nM. Next, `Cn1cc(C(=O)NC23CCC(CC2)Cn2c3nc(C(=O)NCc3ccc(F)cc3)c(O)c2=O)cn1` [Example 246, 7,10-Ethanopyrimido[1,2-a]azepine-2-carboxamide, N-[(4-fluorophenyl)methyl]-4,6,7,8,9,10-hexahydro-3-hydroxy-10-[[(1-methyl-1H-pyrazol-4-yl)carbonyl]amino]-4-oxo-]: below 10 nM; `Cn1nccc1C(=O)NC12CCC(CC1)Cn1c2nc(C(=O)NCc2ccc(F)cc2)c(O)c1=O` [Example 247, 7,10-Ethanopyrimido[1,2-a]azepine-2-carboxamide, N-[(4-fluorophenyl)methyl]-4,6,7,8,9,10-hexahydro-3-hydroxy-10-[[(1-methyl-1H-pyrazol-5-yl)carbonyl]amino]-4-oxo-]: below 10 nM. `Cn1cc(C(=O)NC23CCC(CC2)Cn2c3nc(C(=O)NCc3ccc(F)cc3)c(O)c2=O)nn1` [Example 248, 7,10-Ethanopyrimido[1,2-a]azepine-2-carboxamide, N-[(4-fluorophenyl)methyl]-4,6,7,8,9,10-hexahydro-3-hydroxy-10-[[(1-methyl-1H-1,2,3-triazol-4-yl)carbonyl]amino]-4-oxo-]: the IC50 was below 10 nM.

As for `Cn1nnnc1C(=O)NC12CCC(CC1)Cn1c2nc(C(=O)NCc2ccc(F)cc2)c(O)c1=O` [Example 249, 7,10-Ethanopyrimido[1,2-a]azepine-2-carboxamide, N-[(4-fluorophenyl)methyl]-4,6,7,8,9,10-hexahydro-3-hydroxy-10-[[(1-methyl-1H-tetrazol-5-yl)carbonyl]amino]-4-oxo-], the IC50 was below 10 nM. Turning to `Cn1nnc(C(=O)NC23CCC(CC2)Cn2c3nc(C(=O)NCc3ccc(F)cc3)c(O)c2=O)n1` [Example 250, 7,10-Ethanopyrimido[1,2-a]azepine-2-carboxamide, N-[(4-fluorophenyl)methyl]-4,6,7,8,9,10-hexahydro-3-hydroxy-10-[[(2-methyl-2H-tetrazol-5-yl)carbonyl]amino]-4-oxo-], the IC50 was below 10 nM. Next, `O=C(NCc1ccc(F)cc1)c1nc2n(c(=O)c1O)CC1CCC2(NC(=O)[C@H]2CCCN2)CC1` [Example 252, 7,10-Ethanopyrimido[1,2-a]azepine-2-carboxamide, N-[(4-fluorophenyl)methyl]-4,6,7,8,9,10-hexahydro-3-hydroxy-4-oxo-10-[[(2R)-2-pyrrolidinylcarbonyl]amino]-]: 10 to 100 nM; `CN1CCC[C@@H]1C(=O)NC12CCC(CC1)Cn1c2nc(C(=O)NCc2ccc(F)cc2)c(O)c1=O` [Example 257, 7,10-Ethanopyrimido[1,2-a]azepine-2-carboxamide, N-[(4-fluorophenyl)methyl]-4,6,7,8,9,10-hexahydro-3-hydroxy-10-[[[(2R)-1-methyl-2-pyrrolidinyl]carbonyl]amino]-4-oxo-]: 10 to 100 nM. Take `CN1CCC[C@H]1C(=O)NC12CCC(CC1)Cn1c2nc(C(=O)NCc2ccc(F)cc2)c(O)c1=O` [Example 258, 7,10-Ethanopyrimido[1,2-a]azepine-2-carboxamide, N-[(4-fluorophenyl)methyl]-4,6,7,8,9,10-hexahydro-3-hydroxy-10-[[[(2S)-1-methyl-2-pyrrolidinyl]carbonyl]amino]-4-oxo-]: the IC50 was 10 to 100 nM.

For `COCCOC(=O)NC12CCC(CC1)Cn1c2nc(C(=O)NCc2ccc(F)cc2)c(O)c1=O` [Example 259, Carbamic acid, [2-[[[(4-fluorophenyl)methyl]amino-0]carbonyl]-6,7,8,9-tetrahydro-3-hydroxy-4-oxo-7,10-ethanopyrimido[1,2-a]azepin-10(4H)-yl]-, 2-methoxyethyl ester], the IC50 was below 10 nM.
